Source: patent US20220160716A1 (SORBONNE UNIVERSITE, priority 2019, published 2022)
Entries after “also recorded” stand apart in the source; their conditions may differ.

The compounds below were run against CK1 (assay: Protein kinase catalytic activity assay, CK1). Details: read-out: IC50 of protein kinases, CK1.
Assay type: biochemical

Row | SMILES | IC50 [µM]
1 | CC[C@@H](Nc1nc(NCc2cccc(F)c2)c2ncn(C3CCCC3)c2n1)C(=O)O [MRT2-235] | 7
2 | CC[C@@H](Nc1nc(NCc2ccc(Cl)c(F)c2)c2ncn(C3CCCC3)c2n1)C(=O)O [MRT2-243] | 6.1
3 | CC[C@@H](Nc1nc(NCc2cccc(Cl)c2)c2ncn(C3CCCC3)c2n1)C(=O)O [MRT2-237] | 3.33

The compounds below were run against T1, CDK5/p25 (Homo sapiens, UniProt Q00535) (assay: not given). Details: activator p25; read-out: IC50 of protein kinases, CDK5/p25.
T1 construct: made in house
Assay type: biochemical

T1 sequence (Q00535 whole entry, species assumed): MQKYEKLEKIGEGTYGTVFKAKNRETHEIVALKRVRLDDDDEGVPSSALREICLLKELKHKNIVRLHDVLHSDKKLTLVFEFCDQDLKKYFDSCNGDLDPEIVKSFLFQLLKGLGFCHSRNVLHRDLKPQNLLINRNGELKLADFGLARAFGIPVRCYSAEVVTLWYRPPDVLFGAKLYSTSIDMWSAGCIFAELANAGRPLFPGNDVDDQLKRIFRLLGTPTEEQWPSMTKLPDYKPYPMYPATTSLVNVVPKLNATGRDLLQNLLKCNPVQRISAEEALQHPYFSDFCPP
T1 sequence (Q15078 99-307 partner limits assumed, species assumed): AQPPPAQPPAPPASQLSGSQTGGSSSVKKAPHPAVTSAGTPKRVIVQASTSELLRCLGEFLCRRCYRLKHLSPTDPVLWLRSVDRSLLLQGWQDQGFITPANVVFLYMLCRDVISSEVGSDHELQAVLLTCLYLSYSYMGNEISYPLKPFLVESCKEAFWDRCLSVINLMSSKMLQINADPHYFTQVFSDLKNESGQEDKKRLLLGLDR

Row | SMILES | IC50 [µM]
4 | CC[C@@H](Nc1nc(NCc2cccc(F)c2)c2ncn(C3CCCC3)c2n1)C(=O)O [MRT2-235] | 8.3
5 | CC[C@@H](Nc1nc(NCc2ccc(Cl)c(F)c2)c2ncn(C3CCCC3)c2n1)C(=O)O [MRT2-243] | 6.3
6 | CC[C@@H](Nc1nc(NCc2cccc(Cl)c2)c2ncn(C3CCCC3)c2n1)C(=O)O [MRT2-237] | 7.7

The compounds below were run against T2, ABCB4-WT (Homo sapiens, UniProt P21439) (assay: ABCB4-mediated phosphatidylcholine secretion, HEK cells expressing ABCB4-WT). Details: 10 μM and 25 μM.
T2 construct: The subcloning of wild type (WT) ABCB4, isoform A (NM_000443.3), into pcDNA3 vector has been described; expressed in transfected cells; host or cells: HEK-293
Assay type: cell-based
Description: (§1) Cyclosporin A (CsA) was from Santa Cruz Biotechnologies (Dallas, Tex.). […] Each compound was solubilized in dimethylsulfoxide (DMSO) as 1000× concentrated stock solutions in order to treat cells with 5 μM to 100 μM final concentrations, using DMSO as control vehicle at the same dilution (0.1% DMSO for all conditions). The cells were treated 24 hours post-transfection with these drugs during 16 hours, except for the viability assays for which cells were treated during three days. After drug treatment, cells were used for immunoanalyses, cell viability assays or PC secretion assays.
(§2) HEK cells were seeded in 0.01% poly-L-lysine (Sigma) pre-coated 6-well plates of 10 cm^2 area per well (1.3×10^6 cells per well). After transient transfection of the empty vector (control), plasmids encoding ABCB4-WT or its variants, cells were incubated during 24 hours at 37° C. in serum-free medium supplemented with 0.5 mM sodium taurocholate (Sigma) and 0.02% fatty acid-free bovine serum albumin (Sigma). Then, the secreted PC was quantified from the collected media using a fluoro-enzymatic assay previously described (12). Each condition was analysed in triplicate, after background subtraction, and results were normalized to the expression levels of ABCB4 determined by immunoblots of the corresponding cell lysates.

T2 sequence (P21439 1-1279 isoform P21439-2): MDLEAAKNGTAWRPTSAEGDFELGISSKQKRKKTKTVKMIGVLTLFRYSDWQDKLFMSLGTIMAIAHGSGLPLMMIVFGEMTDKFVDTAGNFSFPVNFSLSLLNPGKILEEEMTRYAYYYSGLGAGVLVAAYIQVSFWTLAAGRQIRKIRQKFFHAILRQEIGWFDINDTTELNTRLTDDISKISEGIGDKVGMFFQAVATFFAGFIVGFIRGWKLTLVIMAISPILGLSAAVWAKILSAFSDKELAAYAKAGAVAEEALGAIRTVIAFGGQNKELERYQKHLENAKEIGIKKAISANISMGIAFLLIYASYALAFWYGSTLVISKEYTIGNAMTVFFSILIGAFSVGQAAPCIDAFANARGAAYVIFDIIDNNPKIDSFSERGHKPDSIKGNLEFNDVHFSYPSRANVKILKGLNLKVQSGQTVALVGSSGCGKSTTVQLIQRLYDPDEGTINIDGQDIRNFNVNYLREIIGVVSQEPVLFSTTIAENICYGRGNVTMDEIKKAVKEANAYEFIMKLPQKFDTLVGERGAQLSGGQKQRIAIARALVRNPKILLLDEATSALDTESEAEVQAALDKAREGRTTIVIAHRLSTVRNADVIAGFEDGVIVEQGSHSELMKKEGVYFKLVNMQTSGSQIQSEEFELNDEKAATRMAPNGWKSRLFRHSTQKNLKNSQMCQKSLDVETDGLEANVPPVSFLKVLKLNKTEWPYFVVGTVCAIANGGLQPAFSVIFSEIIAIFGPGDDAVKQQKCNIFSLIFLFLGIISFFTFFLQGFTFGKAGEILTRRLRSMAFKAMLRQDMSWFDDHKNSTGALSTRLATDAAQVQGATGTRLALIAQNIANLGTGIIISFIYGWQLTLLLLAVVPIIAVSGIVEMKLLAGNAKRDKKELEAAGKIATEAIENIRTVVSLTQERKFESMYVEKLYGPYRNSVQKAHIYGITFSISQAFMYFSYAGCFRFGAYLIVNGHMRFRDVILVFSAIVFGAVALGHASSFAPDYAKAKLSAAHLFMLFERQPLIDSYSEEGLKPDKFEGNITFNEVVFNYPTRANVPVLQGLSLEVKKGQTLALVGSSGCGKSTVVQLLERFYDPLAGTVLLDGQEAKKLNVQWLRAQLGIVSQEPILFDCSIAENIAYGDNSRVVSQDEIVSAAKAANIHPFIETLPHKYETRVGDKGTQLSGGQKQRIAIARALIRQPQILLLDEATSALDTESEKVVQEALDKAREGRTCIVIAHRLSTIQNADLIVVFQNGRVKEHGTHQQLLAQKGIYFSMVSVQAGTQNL

Row | SMILES | inhibition of ABCB4-WT-mediated PC secretion compared to roscovitine
7 | CC[C@@H](Nc1nc(NCc2cccc(F)c2)c2ncn(C3CCCC3)c2n1)C(=O)O [MRT2-235] | less inhibitory than the original molecule
8 | CC[C@@H](Nc1nc(NCc2ccc(Cl)c(F)c2)c2ncn(C3CCCC3)c2n1)C(=O)O [MRT2-243] | less inhibitory than the original molecule
9 | CC[C@@H](Nc1nc(NCc2cccc(Cl)c2)c2ncn(C3CCCC3)c2n1)C(=O)O [MRT2-237] | less inhibitory than the original molecule

Same assay, conditions: from dose-response curves of FIG. 4C

Row | SMILES | log IC50 on the PC secretion activity of ABCB4-WT
10 | CC[C@@H](Nc1nc(NCc2cccc(F)c2)c2ncn(C3CCCC3)c2n1)C(=O)O [MRT2-235] | −4.678
11 | CC[C@@H](Nc1nc(NCc2ccc(Cl)c(F)c2)c2ncn(C3CCCC3)c2n1)C(=O)O [MRT2-243] | −4.754
12 | CC[C@@H](Nc1nc(NCc2cccc(Cl)c2)c2ncn(C3CCCC3)c2n1)C(=O)O [MRT2-237] | −4.533

Same assay, conditions: from dose-response curves of FIG. 4C, read-out: IC50 on the PC secretion activity of ABCB4-WT

Row | SMILES | IC50 [µM]
13 | CC[C@@H](Nc1nc(NCc2cccc(F)c2)c2ncn(C3CCCC3)c2n1)C(=O)O [MRT2-235] | 21
14 | CC[C@@H](Nc1nc(NCc2ccc(Cl)c(F)c2)c2ncn(C3CCCC3)c2n1)C(=O)O [MRT2-243] | 17.6
15 | CC[C@@H](Nc1nc(NCc2cccc(Cl)c2)c2ncn(C3CCCC3)c2n1)C(=O)O [MRT2-237] | 29.3

These compounds were tested against T3, CDK9/T (Homo sapiens, UniProt P50750) (assay: Protein kinase catalytic activity assay, CDK9/cyclin T). Details: activator cyclin T; read-out: IC50 of protein kinases, CDK9/T.
T3 construct: made in house
Assay type: biochemical

Row | SMILES | IC50 [µM]
16 | CC[C@@H](Nc1nc(NCc2cccc(F)c2)c2ncn(C3CCCC3)c2n1)C(=O)O [MRT2-235] | 7
17 | CC[C@@H](Nc1nc(NCc2ccc(Cl)c(F)c2)c2ncn(C3CCCC3)c2n1)C(=O)O [MRT2-243] | 5
18 | CC[C@@H](Nc1nc(NCc2cccc(Cl)c2)c2ncn(C3CCCC3)c2n1)C(=O)O [MRT2-237] | 9

The compounds below were run against T4, ABCB4-I541F (Homo sapiens, UniProt P21439, I541F) (assay: ABCB4-mediated phosphatidylcholine secretion, HEK cells expressing ABCB4-I541F). Details: 25 μM, maximal activity = cells expressing ABCB4-WT, vehicle 7.1±0.8%.
Assay type: cell-based
Design: The subcloning of wild type (WT) ABCB4, isoform A (NM_000443.3), into pcDNA3 vector has been described; expressed in transfected cells; host or cells: HEK-293 (immunoblot, PC secretion)
Description: as §1, §2

T4 sequence (P21439 1-1279 isoform P21439-2 I541F): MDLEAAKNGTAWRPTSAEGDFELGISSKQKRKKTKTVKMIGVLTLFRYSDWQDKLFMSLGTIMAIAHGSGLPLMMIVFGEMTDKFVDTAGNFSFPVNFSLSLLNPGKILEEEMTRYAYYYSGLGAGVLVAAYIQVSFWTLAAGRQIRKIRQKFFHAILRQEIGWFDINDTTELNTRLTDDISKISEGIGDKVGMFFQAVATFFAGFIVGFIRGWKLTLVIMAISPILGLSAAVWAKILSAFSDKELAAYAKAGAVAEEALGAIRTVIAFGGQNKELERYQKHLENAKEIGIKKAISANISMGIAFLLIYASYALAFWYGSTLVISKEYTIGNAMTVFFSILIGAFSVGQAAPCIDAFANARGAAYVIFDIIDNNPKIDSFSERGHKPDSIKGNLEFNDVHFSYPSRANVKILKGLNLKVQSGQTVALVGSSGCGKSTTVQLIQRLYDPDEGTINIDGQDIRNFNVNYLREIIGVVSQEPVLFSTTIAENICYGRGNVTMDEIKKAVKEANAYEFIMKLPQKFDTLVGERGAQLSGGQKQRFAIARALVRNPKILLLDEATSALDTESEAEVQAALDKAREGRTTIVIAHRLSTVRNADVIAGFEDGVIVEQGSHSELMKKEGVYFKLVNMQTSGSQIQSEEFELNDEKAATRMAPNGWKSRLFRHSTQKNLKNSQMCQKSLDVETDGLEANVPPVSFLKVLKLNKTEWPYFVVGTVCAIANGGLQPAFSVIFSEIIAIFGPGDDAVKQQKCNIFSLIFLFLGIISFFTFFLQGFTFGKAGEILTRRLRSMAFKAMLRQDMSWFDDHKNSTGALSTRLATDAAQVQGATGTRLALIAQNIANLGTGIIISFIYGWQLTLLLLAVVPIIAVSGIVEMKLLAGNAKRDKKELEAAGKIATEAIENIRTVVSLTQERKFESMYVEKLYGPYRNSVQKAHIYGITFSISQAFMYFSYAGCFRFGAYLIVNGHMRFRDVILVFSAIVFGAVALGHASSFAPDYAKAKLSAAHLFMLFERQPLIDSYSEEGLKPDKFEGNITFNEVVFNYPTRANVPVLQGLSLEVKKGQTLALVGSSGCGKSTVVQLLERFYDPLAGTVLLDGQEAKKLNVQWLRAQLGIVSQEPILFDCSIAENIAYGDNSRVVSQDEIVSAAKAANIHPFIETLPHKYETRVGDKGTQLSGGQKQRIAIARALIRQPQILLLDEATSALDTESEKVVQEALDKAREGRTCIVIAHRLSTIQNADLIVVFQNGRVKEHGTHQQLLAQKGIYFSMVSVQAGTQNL

Row | SMILES | PC secretion activity of ABCB4-I541F (residual activity) [%]
19 | CC[C@@H](Nc1nc(NCc2cccc(F)c2)c2ncn(C3CCCC3)c2n1)C(=O)O [MRT2-235] | 19.0±3.4
20 | CC[C@@H](Nc1nc(NCc2ccc(Cl)c(F)c2)c2ncn(C3CCCC3)c2n1)C(=O)O [MRT2-243] | 22.5±6.2
21 | CC[C@@H](Nc1nc(NCc2cccc(Cl)c2)c2ncn(C3CCCC3)c2n1)C(=O)O [MRT2-237] | 13.0±3.5

These compounds were tested against ABCB4-L556R (Homo sapiens, UniProt P21439, L556R) (assay: Canalicular localisation of ABCB4-L556R by indirect immunofluorescence in HepG2 cells). Details: 25 μM.
Assay type: cell-based
Design: The subcloning of wild type (WT) ABCB4, isoform A (NM_000443.3), into pcDNA3 vector has been described; expressed in transfected cells; host or cells: HepG2 (immunofluorescence)
Description: For indirect immunofluorescence, HepG2 cells were grown on glass coverslips and after transfection and treatments, they were fixed and permeabilized during 1 min at −20° C. in ice-cold methanol. Then ABCB4 and ABCC2 were immunolabelled using the mouse monoclonal P3II-26 (IgG2b) and M2I-4 (IgG1) antibodies (Enzo Life Sciences), respectively. AlexaFluor® 555 and AlexaFluor® 488 conjugated isotype-specific secondary antibodies (Thermo Fisher Scientific) and Hoechst 33342 (Thermo Fisher Scientific) were used to label ABCB4, ABCC2 and nuclei, respectively. Images were acquired using an IX83 inverted fluorescence microscope from Olympus (Rungis, France), equipped with a UPLSAPO 60XS2 silicone immersion objective and a Hamamatsu ORCA Flash4.0 digital CMOS camera, and analysed using Olympus CellSens Dimension Desktop version 1.16 and Adobe Photoshop version 8.0.1. For each experiment, all images were acquired with constant settings (acquisition time and correction of signal intensities).

ABCB4-L556R, sequence (P21439 1-1279 isoform P21439-2 L556R): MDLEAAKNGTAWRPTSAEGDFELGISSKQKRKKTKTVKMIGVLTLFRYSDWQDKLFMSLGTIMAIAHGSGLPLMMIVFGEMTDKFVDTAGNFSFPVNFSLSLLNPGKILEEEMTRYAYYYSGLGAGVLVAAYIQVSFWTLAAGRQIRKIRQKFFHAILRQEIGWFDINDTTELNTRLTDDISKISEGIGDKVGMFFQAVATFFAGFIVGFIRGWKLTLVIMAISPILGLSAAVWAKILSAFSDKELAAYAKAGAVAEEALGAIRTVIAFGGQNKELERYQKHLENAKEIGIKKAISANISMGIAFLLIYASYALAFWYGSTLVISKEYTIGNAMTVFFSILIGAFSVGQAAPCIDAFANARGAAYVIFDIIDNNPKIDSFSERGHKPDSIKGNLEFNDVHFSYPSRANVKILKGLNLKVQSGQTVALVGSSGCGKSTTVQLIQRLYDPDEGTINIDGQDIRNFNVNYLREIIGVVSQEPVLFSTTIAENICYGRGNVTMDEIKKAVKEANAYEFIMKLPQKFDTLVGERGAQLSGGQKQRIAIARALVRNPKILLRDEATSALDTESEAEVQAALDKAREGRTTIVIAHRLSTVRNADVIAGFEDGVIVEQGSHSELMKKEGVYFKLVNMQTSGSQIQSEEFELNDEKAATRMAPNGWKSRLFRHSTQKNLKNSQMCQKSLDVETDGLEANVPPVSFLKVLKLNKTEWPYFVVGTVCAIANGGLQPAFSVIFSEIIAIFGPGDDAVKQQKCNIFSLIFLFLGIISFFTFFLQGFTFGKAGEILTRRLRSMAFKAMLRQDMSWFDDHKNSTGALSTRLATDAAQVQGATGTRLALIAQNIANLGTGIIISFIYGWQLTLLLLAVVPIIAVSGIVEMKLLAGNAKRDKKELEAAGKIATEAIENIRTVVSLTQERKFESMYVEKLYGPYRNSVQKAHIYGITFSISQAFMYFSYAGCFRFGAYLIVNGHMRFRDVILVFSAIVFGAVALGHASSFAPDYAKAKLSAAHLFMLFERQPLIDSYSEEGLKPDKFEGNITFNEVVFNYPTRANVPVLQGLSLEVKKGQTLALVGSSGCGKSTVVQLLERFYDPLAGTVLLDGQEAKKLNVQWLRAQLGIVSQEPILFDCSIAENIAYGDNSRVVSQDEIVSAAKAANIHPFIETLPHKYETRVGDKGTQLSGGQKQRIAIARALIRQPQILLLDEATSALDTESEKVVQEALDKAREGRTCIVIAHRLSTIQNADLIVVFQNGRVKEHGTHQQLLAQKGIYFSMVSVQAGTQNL

Row | SMILES | relocalisation of ABCB4-L556R at bile canaliculi
22 | CC[C@@H](Nc1nc(NCc2cccc(F)c2)c2ncn(C3CCCC3)c2n1)C(=O)O [MRT2-235] | partially relocalised at bile canaliculi
23 | CC[C@@H](Nc1nc(NCc2ccc(Cl)c(F)c2)c2ncn(C3CCCC3)c2n1)C(=O)O [MRT2-243] | partially relocalised at bile canaliculi
24 | CC[C@@H](Nc1nc(NCc2cccc(Cl)c2)c2ncn(C3CCCC3)c2n1)C(=O)O [MRT2-237] | partially relocalised at bile canaliculi

The compounds below were run against T5, CDK2/A (Homo sapiens, UniProt P24941) (assay: Protein kinase catalytic activity assay, CDK2/cyclin A). Details: activator cyclin A; read-out: IC50 of protein kinases, CDK2/A.
T5 construct: made in house
Assay type: biochemical

Row | SMILES | IC50 [µM]
25 | CC[C@@H](Nc1nc(NCc2cccc(F)c2)c2ncn(C3CCCC3)c2n1)C(=O)O [MRT2-235] | 5.9
26 | CC[C@@H](Nc1nc(NCc2ccc(Cl)c(F)c2)c2ncn(C3CCCC3)c2n1)C(=O)O [MRT2-243] | 3
27 | CC[C@@H](Nc1nc(NCc2cccc(Cl)c2)c2ncn(C3CCCC3)c2n1)C(=O)O [MRT2-237] | 3.4

What follows are compounds tested against T4, ABCB4-I541F (assay: Maturation of ABCB4-I541F by immunoblot in HEK cells). Details: HEK cells, 100 μM, 16 hours, immunoblot.
Assay type: cell-based
Design: The subcloning of wild type (WT) ABCB4, isoform A (NM_000443.3), into pcDNA3 vector has been described; expressed in transfected cells; host or cells: HEK-293 (immunoblot, PC secretion)
Description: as §1
Western blots and indirect immunofluorescence were performed as previously described (2, 12). […] Signals were detected with ECL prime western blotting detection reagent (GE Healthcare, Velizy-Villacoublay, France) and quantified in the linear range of detection using ImageJ 1.50i software (U.S. National Institutes of Health, Bethesda, Md.).

Row | SMILES | maturation (mature form) of ABCB4-I541F
28 | CC[C@@H](Nc1nc(NCc2cccc(F)c2)c2ncn(C3CCCC3)c2n1)C(=O)O [MRT2-235] | significantly increase the expression of a mature form of ABCB4-I541F; also recorded: significant rescue of the maturation
29 | CC[C@@H](Nc1nc(NCc2ccc(Cl)c(F)c2)c2ncn(C3CCCC3)c2n1)C(=O)O [MRT2-243] | significantly increase the expression of a mature form of ABCB4-I541F; also recorded: significant rescue of the maturation
30 | CC[C@@H](Nc1nc(NCc2cccc(Cl)c2)c2ncn(C3CCCC3)c2n1)C(=O)O [MRT2-237] | significantly increase the expression of a mature form of ABCB4-I541F; also recorded: significant rescue of the maturation

Same assay, conditions: HEK cells, 5, 10 and 25 μM

Row | SMILES | correction of ABCB4-I541F maturation
31 | CC[C@@H](Nc1nc(NCc2cccc(F)c2)c2ncn(C3CCCC3)c2n1)C(=O)O [MRT2-235] | dose-dependent correction of ABCB4-I541F maturation
32 | CC[C@@H](Nc1nc(NCc2ccc(Cl)c(F)c2)c2ncn(C3CCCC3)c2n1)C(=O)O [MRT2-243] | dose-dependent correction of ABCB4-I541F maturation
33 | CC[C@@H](Nc1nc(NCc2cccc(Cl)c2)c2ncn(C3CCCC3)c2n1)C(=O)O [MRT2-237] | dose-dependent correction of ABCB4-I541F maturation

Each compound was assayed against T4, ABCB4-I541F (assay: Canalicular localisation of ABCB4-I541F by indirect immunofluorescence in HepG2 cells). Details: 25 μM, 16 hours.
Assay type: cell-based
Design: The subcloning of wild type (WT) ABCB4, isoform A (NM_000443.3), into pcDNA3 vector has been described; expressed in transfected cells; host or cells: HepG2 (immunofluorescence)
Description: For indirect immunofluorescence, HepG2 cells were grown on glass coverslips and after transfection and treatments, they were fixed and permeabilized during 1 min at −20° C. in ice-cold methanol. Then ABCB4 and ABCC2 were immunolabelled using the mouse monoclonal P3II-26 (IgG2b) and M2I-4 (IgG1) antibodies (Enzo Life Sciences), respectively. […] For each experiment, all images were acquired with constant settings (acquisition time and correction of signal intensities).

Row | SMILES | relocalisation of ABCB4-I541F at bile canaliculi
34 | CC[C@@H](Nc1nc(NCc2cccc(F)c2)c2ncn(C3CCCC3)c2n1)C(=O)O [MRT2-235] | partial relocalisation of ABCB4-I541F at bile canaliculi
35 | CC[C@@H](Nc1nc(NCc2ccc(Cl)c(F)c2)c2ncn(C3CCCC3)c2n1)C(=O)O [MRT2-243] | partial relocalisation of ABCB4-I541F at bile canaliculi
36 | CC[C@@H](Nc1nc(NCc2cccc(Cl)c2)c2ncn(C3CCCC3)c2n1)C(=O)O [MRT2-237] | partial relocalisation of ABCB4-I541F at bile canaliculi

Same assay, conditions: 100 μM, 16 hours

Row | SMILES | relocalisation of ABCB4-I541F at bile canaliculi
37 | CC[C@@H](Nc1nc(NCc2cccc(F)c2)c2ncn(C3CCCC3)c2n1)C(=O)O [MRT2-235] | partial relocalisation of ABCB4-I541F at bile canaliculi
38 | CC[C@@H](Nc1nc(NCc2ccc(Cl)c(F)c2)c2ncn(C3CCCC3)c2n1)C(=O)O [MRT2-243] | partial relocalisation of ABCB4-I541F at bile canaliculi
39 | CC[C@@H](Nc1nc(NCc2cccc(Cl)c2)c2ncn(C3CCCC3)c2n1)C(=O)O [MRT2-237] | partial relocalisation of ABCB4-I541F at bile canaliculi
